Results as given in patent US7105577B2, “Antimicrobial method using a hydroxydiphenyl ether compound” (Ciba Specialty Chemicals Corporation, priority 1999, dated 2006).
≈ marks a conversion by molar mass, not a printed value. Read-outs that look alike come from different tables or passages of the source.

Key:
Type in all cases: cell-based
[1] = system: Staphylococcus hominis DSM 20328; assay: Agar incorporation test, MIC; conditions: for MIC: DSM20328, Table 1, Staphylococcus hominis DSM 20328, agar incorporation, read-out: Minimum Inhibitory Concentration, SH
[2] = system: Candida albicans ATCC 10231; assay: Agar incorporation test, MIC; conditions: for MIC: ATCC10231
Excerpt: (§1) Medium: • Nutrient agar as test agar for bacteria: • Mueller hinton agar to cultivate the aerobic bacteria • Mueller hinton bouillon for obtaining the suspension of microorganisms • Ethanol as solvent • Wilkins-Chalgren agar to cultivate the […] bacteria • Sabouraud glucose agar to cultivate the dermatophytes
(§2) Examples of Test bacteria • Staphylococcus aureusATCC 6538 • Staphylococcus hominis DSM 20330 • Escherichia coli NCTC 8196 • Pseudomonas aeruginosa CIP A-22 • Candida albicans ATCC 10231 • Aspergillus niger ATCC 6275
(§3) Procedure: The test substances are dissolved in ethanol, and a dilution series of the compound of the formula (102) in agar are prepared. • Anaerobic bacteria and dermatophytes are activated on agar-plates, and washes off with Mueller-Hinton bouillon. Aerobic bacteria are activated in Mueller-Hinton bouillon overnight. The test germ suspension are diluted with Mueller-Hinton bouillon to a density of McFarland standard 0.5. • 10 μl of each germ suspension is dropped onto the agar plates containing the test substance, and the plates are then incubated at 37° C. for 2 days. (Aerobic bacteria are incubated at 36° C. for 72 hours, anaerobic bacteria are incubated at 30° C. for 72 hours). As controls, the bacterial suspensions are applied to agar plates without test substances.

[3] = system: Escherichia coli NCTC 8196; assay: Agar incorporation test, MIC; conditions: for MIC: NCTC8196
Excerpt: as §1, §2, §3

[4] = system: Aspergillus niger ATCC 6275; assay: Agar incorporation test, MIC; conditions: for MIC: ATCC6275
Excerpt: as §1, §2, §3

[5] = system: Staphylococcus aureus ATCC 6538; assay: Agar incorporation test, MIC; conditions: for MIC: ATCC6538
Excerpt: as §1, §2, §3

[6] = system: Pseudomonas aeruginosa CIP A-22; assay: Agar incorporation test, MIC; conditions: for MIC: CIPA22
Excerpt: as §1, §2, §3

[7] = system: Proteus vulgaris ATCC 6896; assay: Microbiological data (MIC); conditions: Table 4
Procedure: as §1, §3
(§4) Microbiological data of the above compounds (MIC in ppm): […]

[8] = system: Corynebacterium xerosis ATCC 373/ATCC 7711; assay: Microbiological data (MIC); conditions: Table 4
Procedure: as §1, §3, §4

[9] = system: Actinomyces viscosum DSM 43329; assay: Microbiological data (MIC); conditions: Table 4
Procedure: as §1, §3, §4

[10] = system: Staphylococcus epidermidis ATCC 12228; assay: Microbiological data (MIC); conditions: Table 4
Procedure: as §1, §3, §4

[11] = system: Corynebacterium minutissimum ATCC 23348; assay: Microbiological data (MIC); conditions: Table 4
Procedure: as §1, §3, §4

[12] = system: Streptococcus sobrinus DSM 20742; assay: Microbiological data (MIC); conditions: Table 4
Procedure: as §1, §3, §4

[13] = system: Trichophyton mentagrophytes ATCC 9553; assay: Microbiological data (MIC); conditions: Table 4
Procedure: as §1, §3, §4

[14] = system: Porphyromonas gingivalis DSM 20709; assay: Microbiological data (MIC); conditions: Table 4
Procedure: as §1, §3, §4

[15] = system: Selenomonas artemidis ATCC 43528; assay: Microbiological data (MIC); conditions: Table 4
Procedure: as §1, §3, §4

[16] = system: Epidermophyton floccosum CBS 55384; assay: Microbiological data (MIC); conditions: Table 4
Procedure: as §1, §3, §4

[17] = system: Propionibacterium acnes ATCC 11829; assay: Microbiological data (MIC); conditions: Table 4
Procedure: as §1, §3, §4

[18] = system: Trichophyton rubrum DSM 4167; assay: Microbiological data (MIC); conditions: Table 4
Procedure: as §1, §3, §4

[19] = system: Malassezia furfur DSM 6171; assay: Microbiological data (MIC); conditions: DSM6171, Table 4
Procedure: as §1, §3, §4

[20] = Table 1, Candida albicans ATCC 10231, agar incorporation, read-out: Minimum Inhibitory Concentration, CA
[21] = Table 1, Escherichia coli NCTC 8196, agar incorporation, read-out: Minimum Inhibitory Concentration, EC
[22] = Table 1, Aspergillus niger ATCC 6275, agar incorporation, read-out: Minimum Inhibitory Concentration, AN
[23] = Table 1, Staphylococcus aureus ATCC 6538, agar incorporation, read-out: Minimum Inhibitory Concentration, SA
[24] = Table 1, Pseudomonas aeruginosa CIP A-22, agar incorporation, read-out: Minimum Inhibitory Concentration, PA

Structure (SMILES)	MIC [1] [µg/mL]	MIC [2, 20] [µg/mL]	MIC [3, 21] [µg/mL]	MIC [4, 22] [µg/mL]	further results
CCCCc1ccc(Oc2ccccc2)cc1O [(104)]	30 (≈ 124 µM)	30 (≈ 124 µM)	30 (≈ 124 µM)	60 (≈ 248 µM)	–
CCCc1ccc(Oc2ccccc2)cc1O [(105)]	30 (≈ 131 µM)	30 (≈ 131 µM)	30 (≈ 131 µM)	30 (≈ 131 µM)	–
CCCCCc1ccc(Oc2ccccc2)cc1O [(106)]	30 (≈ 117 µM)	60 (≈ 234 µM)	30 (≈ 117 µM)	60 (≈ 234 µM)	–
Oc1ccccc1Oc1ccccc1 [(107)]	30 (≈ 161 µM)	–	30 (≈ 161 µM)	120 (≈ 644 µM)	–
CCC(=O)c1ccc(O)c(Oc2ccccc2)c1 [(108)]	60 (≈ 248 µM)	–	120 (≈ 495 µM)	–	–
CCCC(=O)c1ccc(O)c(Oc2ccccc2)c1 [(109)]	30 (≈ 117 µM)	120 (≈ 468 µM)	30 (≈ 117 µM)	120 (≈ 468 µM)	–
O=Cc1ccc(O)c(Oc2ccccc2)c1 [(110)]	–	–	30 (≈ 140 µM)	–	–
CCC(C)c1ccccc1Oc1ccccc1O (stereo not shown) [(111)]	60 (≈ 248 µM)	30 (≈ 124 µM)	–	120 (≈ 495 µM)	–
CC(C)c1ccccc1Oc1ccccc1O [(112)]	60 (≈ 263 µM)	60 (≈ 263 µM)	–	120 (≈ 526 µM)	–
Cc1ccccc1Oc1ccccc1O [(113)]	30 (≈ 150 µM)	120 (≈ 599 µM)	30 (≈ 150 µM)	60 (≈ 300 µM)	–
CC(C)(C)c1ccccc1Oc1ccccc1O [(114)]	30 (≈ 124 µM)	60 (≈ 248 µM)	30 (≈ 124 µM)	120 (≈ 495 µM)	–
CCc1ccccc1Oc1ccccc1O [(115)]	120 (≈ 560 µM)	120 (≈ 560 µM)	120 (≈ 560 µM)	120 (≈ 560 µM)	–
CCC(C)c1ccccc1Oc1cccc(O)c1 (stereo not shown) [(116)]	30 (≈ 124 µM)	30 (≈ 124 µM)	–	30 (≈ 124 µM)	–
Cc1ccc(C(C)C)cc1Oc1ccc(O)cc1 [(122)]	6 (≈ 24.8 µM)	13 (≈ 53.6 µM)	–	–	MIC [5, 23]: 6 µg/mL (≈ 24.8 µM)
Cc1ccc(C)c(Oc2ccc(O)cc2)c1 [(129)]	–	25 (≈ 117 µM)	–	–	MIC [6, 24]: 25 µg/mL (≈ 117 µM); MIC [5, 23]: 50 µg/mL (≈ 233 µM)
Cc1ccc(C(C)C)cc1Oc1ccc(O)cc1 [R1 = Me R2 = i-Propyl]	–	–	–	–	MIC, Staphylococcus hominis DSM 20328 ([1]; Table 4): 6.25 ppm; MIC, Proteus vulgaris ATCC 6896 [7]: >200 ppm; MIC, Corynebacterium xerosis ATCC 373/ATCC 7711 [8]: 3.125 ppm; MIC, Actinomyces viscosum DSM 43329 [9]: 80 ppm; MIC, Staphylococcus epidermidis ATCC 12228 [10]: 6.25 ppm; MIC, Corynebacterium minutissimum ATCC 23348 [11]: 6.25 ppm; MIC, Streptococcus sobrinus DSM 20742 [12]: 5 ppm; MIC, Trichophyton mentagrophytes ATCC 9553 [13]: 6.25 ppm; MIC, Porphyromonas gingivalis DSM 20709 [14]: 5 ppm; MIC, Selenomonas artemidis ATCC 43528 [15]: 10 ppm; MIC, Epidermophyton floccosum CBS 55384 [16]: <3.125 ppm; MIC, Propionibacterium acnes ATCC 11829 [17]: 10 ppm; MIC, Trichophyton rubrum DSM 4167 [18]: 5 ppm; MIC, Pseudomonas aeruginosa CIP A-22 ([6]; Table 4): >200 ppm; MIC, Staphylococcus aureus ATCC 6538 ([5]; Table 4): 6.25 ppm; MIC, Candida albicans ATCC 10231 ([2]; Table 4): 12.5 ppm; MIC, Escherichia coli NCTC 8196 ([3]; Table 4): >200 ppm; MIC, Aspergillus niger ATCC 6275 ([4]; Table 4): 50 ppm
Cc1ccc(C)c(Oc2ccc(O)cc2)c1 [R1 = R2 = Me]	–	–	–	–	MIC, Proteus vulgaris ATCC 6896 [7]: >200 ppm; MIC, Corynebacterium xerosis ATCC 373/ATCC 7711 [8]: 25.0 ppm; MIC, Staphylococcus epidermidis ATCC 12228 [10]: 25.0 ppm; MIC, Corynebacterium minutissimum ATCC 23348 [11]: 25.0 ppm; MIC, Pseudomonas aeruginosa CIP A-22 ([6]; Table 4): >200 ppm; MIC, Staphylococcus aureus ATCC 6538 ([5]; Table 4): 50.0 ppm; MIC, Candida albicans ATCC 10231 ([2]; Table 4): 25.0 ppm; MIC, Escherichia coli NCTC 8196 ([3]; Table 4): >200 ppm
Cc1ccc(C(C)(C)C)c(Oc2ccc(O)cc2)c1 [R1 = t-Butyl R2 = Me, 4-(2-t-Butyl-5-methylphenoxy)phenol]	–	–	–	–	MIC ([7]; Proteus vulgaris, ATCC6896): > 100 µg/mL; MIC ([8]; Corynebacterium xerosis): 3.4 µg/mL (≈ 13.3 µM); MIC ([9]; Actinomyces, DSM43329): 5 µg/mL (≈ 19.5 µM); MIC [19]: 2.5 µg/mL (≈ 9.75 µM); MIC ([10]; Staphylococcus epidermidis, ATCC12228): 3.4 µg/mL (≈ 13.3 µM); MIC ([11]; Corynebacterium minutissimum, ATCC23348): 3.4 µg/mL (≈ 13.3 µM); MIC ([12]; Streptococcus sobrinus, DSM20742): 5 µg/mL (≈ 19.5 µM); MIC ([13]; Trichophyton mentagrophytes, ATCC9553): 3.4 µg/mL (≈ 13.3 µM); MIC ([14]; Porphyromonas gingivalis, DSM20709): 1.25 µg/mL (≈ 4.88 µM); MIC ([15]; Centipeda artemidis, ATCC43528): 5 µg/mL (≈ 19.5 µM); MIC ([16]; Epidermophyton floccosum, CBS55384): 1.65 µg/mL (≈ 6.44 µM); MIC ([17]; Cutibacterium acnes, ATCC11829): 5 µg/mL (≈ 19.5 µM); MIC ([18]; Trichophyton rubrum, DSM4167): 10 µg/mL (≈ 39 µM); MIC ([6]; Pseudomonas aeruginosa, Table 4, read-out: MIC, Pseudomonas aeruginosa CIP A-22): > 100 µg/mL; MIC ([5]; Staphylococcus aureus, Table 4, read-out: MIC, Staphylococcus aureus ATCC 6538): 6.75 µg/mL (≈ 26.3 µM); MIC ([2]; Candida albicans, Table 4, read-out: MIC, Candida albicans ATCC 10231): 12.5 µg/mL (≈ 48.8 µM); MIC ([3]; Escherichia coli, Table 4, read-out: MIC, Escherichia coli NCTC 8196): > 100 µg/mL; MIC ([4]; Aspergillus niger, Table 4, read-out: MIC, Aspergillus niger ATCC 6275): 6.75 µg/mL (≈ 26.3 µM)

Continued, in another order:

MIC [1] [µg/mL]	MIC [2, 20] [µg/mL]	MIC [3, 21] [µg/mL]	MIC [4, 22] [µg/mL]	Structure (SMILES)	further results
–	–	60 (≈ 297 µM)	–	Oc1ccc(Oc2ccccc2O)cc1 [(117)]	–
3 (≈ 12.4 µM)	50 (≈ 206 µM)	50 (≈ 206 µM)	–	Cc1ccc(C(C)C)c(Oc2ccc(O)cc2)c1 [(118)]	MIC [5, 23]: 5 µg/mL (≈ 20.6 µM)
3 (≈ 10.6 µM)	–	–	–	Cc1ccc(C2CCCCC2)c(Oc2ccc(O)cc2)c1 [(119)]	MIC [5, 23]: 3 µg/mL (≈ 10.6 µM)
4 (≈ 15.6 µM)	–	–	–	CC(C)CCc1ccc(Oc2ccc(O)cc2)cc1 [(120)]	–
5 (≈ 19.5 µM)	13 (≈ 50.7 µM)	–	–	Cc1ccc(C(C)(C)C)c(Oc2ccc(O)cc2)c1 [(121)]	MIC [5, 23]: 7 µg/mL (≈ 27.3 µM)
8 (≈ 27.6 µM)	–	–	–	Oc1ccc(Oc2ccc(CCc3ccccc3)cc2)cc1 [(123)]	–
8 (≈ 31.2 µM)	60 (≈ 234 µM)	–	–	CCc1ccc(Oc2ccc(O)cc2)c(C(C)C)c1 [(124)]	–
30 (≈ 131 µM)	30 (≈ 131 µM)	120 (≈ 526 µM)	–	CCCc1ccc(Oc2ccc(O)cc2)cc1 [(125)]	–
120 (≈ 560 µM)	120 (≈ 560 µM)	120 (≈ 560 µM)	–	CCc1ccc(Oc2ccc(O)cc2)cc1 [(126)]	–
–	50 (≈ 269 µM)	100 (≈ 537 µM)	–	Oc1ccc(Oc2ccccc2)cc1 [(127)]	MIC [6, 24]: 50 µg/mL (≈ 269 µM); MIC [5, 23]: 500 µg/mL (≈ 2690 µM)
–	50 (≈ 197 µM)	50 (≈ 197 µM)	–	Oc1ccc(Oc2ccc(C(F)(F)F)cc2)cc1 [(128)]	MIC [6, 24]: 50 µg/mL (≈ 197 µM); MIC [5, 23]: 50 µg/mL (≈ 197 µM)
–	20 (≈ 74 µM)	–	–	CCCc1ccc(Oc2ccc(O)cc2)c(C(C)C)c1 [(130)]	MIC [6, 24]: 20 µg/mL (≈ 74 µM); MIC [5, 23]: 50 µg/mL (≈ 185 µM)
